For assay [1], the target named is peptidyldipeptidase A (ACE) (Homo sapiens, UniProt P12821). Nature of the assay: Inhibitory effect in vitro on peptidyldipeptidase A, Z-Phe-His-Leu as substrate. The class given is biochemical. The procedure: The inhibitory properties of the compounds of the invention are measured using [^3 H]-D-Ala^2 -Leu-encephalin as substrate for neutral endopeptidase, in accordance with the protocol described by Llorens et al. (Biochem. Biophys. Res. Commun., 96, (1980), 1710 sqq), and Z-Phe-His-Leu as substrate in the case of peptidyldipeptidase A in accordance with the protocol described in Biochem. Biophys. Acta, 206, (1970), 136-142.
Sequence of peptidyldipeptidase A (ACE) (P12821 30-1306, species assumed): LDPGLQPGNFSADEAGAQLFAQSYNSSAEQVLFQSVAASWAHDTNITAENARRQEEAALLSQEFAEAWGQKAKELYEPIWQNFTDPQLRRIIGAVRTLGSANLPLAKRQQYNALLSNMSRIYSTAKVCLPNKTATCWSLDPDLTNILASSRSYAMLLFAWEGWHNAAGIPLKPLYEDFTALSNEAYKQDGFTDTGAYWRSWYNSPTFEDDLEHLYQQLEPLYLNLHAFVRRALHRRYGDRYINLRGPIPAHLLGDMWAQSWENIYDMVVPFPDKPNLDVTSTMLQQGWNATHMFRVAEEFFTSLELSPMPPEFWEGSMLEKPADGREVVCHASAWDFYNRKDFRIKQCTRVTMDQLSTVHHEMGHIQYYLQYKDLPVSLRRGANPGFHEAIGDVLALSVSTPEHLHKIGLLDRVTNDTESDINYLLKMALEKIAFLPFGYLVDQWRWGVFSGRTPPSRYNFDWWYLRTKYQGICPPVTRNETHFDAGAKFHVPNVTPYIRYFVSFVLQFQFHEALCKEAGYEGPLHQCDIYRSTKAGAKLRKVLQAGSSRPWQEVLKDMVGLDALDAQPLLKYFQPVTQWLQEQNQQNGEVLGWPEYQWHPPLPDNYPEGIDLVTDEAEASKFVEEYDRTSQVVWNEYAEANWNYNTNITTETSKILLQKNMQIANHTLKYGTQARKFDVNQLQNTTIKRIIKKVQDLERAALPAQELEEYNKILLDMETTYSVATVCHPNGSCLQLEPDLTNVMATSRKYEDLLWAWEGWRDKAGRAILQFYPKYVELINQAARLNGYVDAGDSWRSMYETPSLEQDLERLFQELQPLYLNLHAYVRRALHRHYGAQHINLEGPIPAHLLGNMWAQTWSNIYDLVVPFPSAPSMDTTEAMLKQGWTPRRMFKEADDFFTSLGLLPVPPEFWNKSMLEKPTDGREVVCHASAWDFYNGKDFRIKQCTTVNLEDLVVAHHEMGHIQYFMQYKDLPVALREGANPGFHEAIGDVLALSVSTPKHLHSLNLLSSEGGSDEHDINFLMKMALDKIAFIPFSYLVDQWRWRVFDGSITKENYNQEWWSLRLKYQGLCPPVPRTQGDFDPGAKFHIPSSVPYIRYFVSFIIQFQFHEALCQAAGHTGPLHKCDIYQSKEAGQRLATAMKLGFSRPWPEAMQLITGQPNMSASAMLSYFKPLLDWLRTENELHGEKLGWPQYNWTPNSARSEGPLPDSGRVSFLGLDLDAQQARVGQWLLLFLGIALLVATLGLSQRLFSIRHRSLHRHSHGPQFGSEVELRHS

The target of assay [2] is neutral endopeptidase (NEP) (Homo sapiens, UniProt P08473). Nature of the assay: Inhibitory effect in vitro on neutral endopeptidase, [3H]-D-Ala2-Leu-encephalin as substrate. The settings on record: for IC50: in vitro. The assay is classed as biochemical.
Sequence of neutral endopeptidase (NEP) (P08473 whole entry, species assumed): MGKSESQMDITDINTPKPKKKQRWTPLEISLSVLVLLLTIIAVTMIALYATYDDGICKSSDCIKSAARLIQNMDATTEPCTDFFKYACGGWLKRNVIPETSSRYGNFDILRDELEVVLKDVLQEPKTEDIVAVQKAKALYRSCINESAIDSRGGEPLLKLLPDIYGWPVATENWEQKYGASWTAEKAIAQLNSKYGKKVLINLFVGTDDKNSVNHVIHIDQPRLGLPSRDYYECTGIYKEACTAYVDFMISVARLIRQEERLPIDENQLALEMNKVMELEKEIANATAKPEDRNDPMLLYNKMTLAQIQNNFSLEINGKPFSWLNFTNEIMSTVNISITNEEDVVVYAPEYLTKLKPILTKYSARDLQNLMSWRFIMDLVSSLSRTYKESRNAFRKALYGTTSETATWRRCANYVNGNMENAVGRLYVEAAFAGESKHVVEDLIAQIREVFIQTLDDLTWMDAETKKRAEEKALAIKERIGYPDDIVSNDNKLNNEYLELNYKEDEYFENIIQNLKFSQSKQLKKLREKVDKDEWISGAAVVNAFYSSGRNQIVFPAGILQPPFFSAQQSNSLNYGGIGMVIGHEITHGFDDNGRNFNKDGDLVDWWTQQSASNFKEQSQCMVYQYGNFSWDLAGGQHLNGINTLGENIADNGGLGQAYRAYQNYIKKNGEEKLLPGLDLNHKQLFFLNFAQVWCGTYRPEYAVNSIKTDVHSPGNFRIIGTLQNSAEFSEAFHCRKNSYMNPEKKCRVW
Assay [3] concerns the target T1, renal neutral endopeptidase (NEP) (Mus musculus, UniProt Q61391).
T1 construct: from tissue; host or cells: mouse kidney (in vivo, homogenised after sacrifice)
T1 sequence (Q61391 1-750): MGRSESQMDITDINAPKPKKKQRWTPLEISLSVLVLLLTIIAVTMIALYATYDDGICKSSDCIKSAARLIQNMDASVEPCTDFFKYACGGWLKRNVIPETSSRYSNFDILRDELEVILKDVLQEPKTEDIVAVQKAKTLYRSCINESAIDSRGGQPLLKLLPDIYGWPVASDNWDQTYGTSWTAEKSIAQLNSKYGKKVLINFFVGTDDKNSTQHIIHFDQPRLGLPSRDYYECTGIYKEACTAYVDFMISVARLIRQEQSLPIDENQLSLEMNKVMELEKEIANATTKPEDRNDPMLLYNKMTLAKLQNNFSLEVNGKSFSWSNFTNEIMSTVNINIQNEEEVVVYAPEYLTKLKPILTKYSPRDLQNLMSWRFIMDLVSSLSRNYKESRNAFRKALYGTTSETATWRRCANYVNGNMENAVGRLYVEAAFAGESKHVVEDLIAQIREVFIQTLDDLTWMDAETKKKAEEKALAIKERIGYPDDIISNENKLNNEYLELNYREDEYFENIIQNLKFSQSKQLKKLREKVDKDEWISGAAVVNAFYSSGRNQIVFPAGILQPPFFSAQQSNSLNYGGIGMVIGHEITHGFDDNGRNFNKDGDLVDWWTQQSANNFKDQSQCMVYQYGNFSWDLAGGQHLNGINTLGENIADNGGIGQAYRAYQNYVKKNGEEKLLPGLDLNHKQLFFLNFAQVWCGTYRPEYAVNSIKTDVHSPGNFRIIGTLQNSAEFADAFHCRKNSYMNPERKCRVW
Kind of assay: Inhibition in vivo of renal NEP, competition with [3H]HACBOGIy. The settings on record: mice, p.o. single dose 2.6 × 10^-6 mol/kg (1.5 mg/kg). The procedure: (§1) The compounds are administrated per os to mice in a single dose. Inhibition of both enzymes is measured during a time period from 1 hour to 16 hours by competitive experiments with specific radiolabelled markers for each enzyme. After i.v. administration of a radiolabelled ACE inhibitor ([^3 H]trandolaprilate) or a radiolabelled NEP inhibitor ([^3 H]HACBOGIy), the animal is sacrificed and the lungs or the kidneys are removed. The organs are homogenized and the radioactivity associated to these homogenates is measured by liquid scintillation as described in the protocol by M. C. Fourni6-Zaluski et al. (J. Med. Chem., 37, (1994), 1070-1083).

The target in assay [4] is T2, pulmonary peptidyldipeptidase A (ACE) (Mus musculus, UniProt P09470).
T2 construct: from tissue; host or cells: mouse lung (in vivo, homogenised after sacrifice)
T2 sequence (P09470 35-1312): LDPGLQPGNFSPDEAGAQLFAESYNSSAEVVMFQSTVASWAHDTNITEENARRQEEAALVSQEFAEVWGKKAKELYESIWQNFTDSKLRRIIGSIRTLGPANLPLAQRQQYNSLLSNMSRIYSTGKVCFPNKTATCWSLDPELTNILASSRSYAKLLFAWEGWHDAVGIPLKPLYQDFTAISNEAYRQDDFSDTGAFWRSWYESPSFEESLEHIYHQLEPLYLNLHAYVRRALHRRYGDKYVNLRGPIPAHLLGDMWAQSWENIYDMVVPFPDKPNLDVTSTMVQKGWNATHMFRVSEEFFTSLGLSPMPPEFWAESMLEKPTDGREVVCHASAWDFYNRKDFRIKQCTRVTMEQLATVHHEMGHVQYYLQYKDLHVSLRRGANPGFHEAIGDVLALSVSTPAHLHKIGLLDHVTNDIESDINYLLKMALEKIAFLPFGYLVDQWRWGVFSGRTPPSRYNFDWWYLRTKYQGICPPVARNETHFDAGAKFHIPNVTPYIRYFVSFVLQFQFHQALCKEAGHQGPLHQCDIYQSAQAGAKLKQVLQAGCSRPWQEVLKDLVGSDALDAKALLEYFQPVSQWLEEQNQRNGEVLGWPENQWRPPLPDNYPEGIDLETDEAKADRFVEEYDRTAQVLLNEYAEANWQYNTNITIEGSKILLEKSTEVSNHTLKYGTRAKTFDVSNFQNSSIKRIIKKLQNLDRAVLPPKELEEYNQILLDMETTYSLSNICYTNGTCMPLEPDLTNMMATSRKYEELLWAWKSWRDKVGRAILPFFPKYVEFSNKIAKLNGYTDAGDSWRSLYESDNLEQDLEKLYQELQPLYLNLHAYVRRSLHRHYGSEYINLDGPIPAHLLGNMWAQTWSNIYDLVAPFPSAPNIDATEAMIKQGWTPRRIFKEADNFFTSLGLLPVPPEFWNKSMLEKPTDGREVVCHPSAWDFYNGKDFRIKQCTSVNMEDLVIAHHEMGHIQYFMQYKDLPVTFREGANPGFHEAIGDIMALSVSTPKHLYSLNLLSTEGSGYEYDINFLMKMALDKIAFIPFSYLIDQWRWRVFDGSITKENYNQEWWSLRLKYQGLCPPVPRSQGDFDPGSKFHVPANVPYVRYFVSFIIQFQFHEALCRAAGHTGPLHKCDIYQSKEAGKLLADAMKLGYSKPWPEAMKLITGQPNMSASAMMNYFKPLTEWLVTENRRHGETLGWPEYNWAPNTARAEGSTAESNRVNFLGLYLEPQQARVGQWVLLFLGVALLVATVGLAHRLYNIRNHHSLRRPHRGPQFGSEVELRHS
Kind of assay: Inhibition in vivo of pulmonary ACE, competition with [3H]trandolaprilate. The settings on record: mice, p.o. single dose 2.6 × 10^-6 mol/kg (1.5 mg/kg). The procedure:
as §1

Assay [5] has as its system spontaneously hypertensive male rat (SHR). Nature of the assay: Anti-hypertensive effect in the spontaneously hypertensive rat (SHR). The class given is in vivo. As to the method: The anti-hypertensive effect of the compounds of the invention is determined in vivo in the rat affected by a hypertension induced by the administration of DOCA salt (deoxycorticosterone acetate) and in the spontaneously hypertensive male rat (SHR), in accordance with the protocol described by Trapani et al. (J. Cardiovasc. Pharmacol., 14, (1989), 419-424). In that test the compounds of the invention are shown to be powerful anti-hypertensives and to be non-toxic.

The conditions of assay [6]: cited from earlier work.
Assay [7] has as its target neutral endopeptidase called "encephalinase" (Homo sapiens, UniProt P08473). As to conditions: Nature, 228, (1980), 286-288; cited from earlier work.

Sequence of neutral endopeptidase called "encephalinase" (P08473 whole entry): as the sequence (P08473 whole entry, species assumed) above

Consider `Cc1ccccc1C1CC[C@@H](C(=O)O)N1C(=O)CNC(=O)C(S)Cc1ccc(O)cc1` (stereo partly shown) [Example 34, N-[N-[2-Mercapto-3-(para-hydroxyphenyl)propanoyl]glycyl]-5-(ortho-methylphenyl)proline], for which the IC50 was 5.2 ± 0.5 nM in assay [1] and 3.1 ± 0.3 nM in assay [2].

For the compound `Cc1ccccc1C1CC[C@@H](C(=O)O)N1C(=O)CNC(=O)C(S)Cc1ccccc1` (stereo partly shown) [Example 36, N-[N-(2-Mercapto-3-phenylpropanoyl)glycyl]-5-(ortho-methylphenyl)proline], the values for the half-inhibitory concentration (IC50) in assay [1] and in assay [2] were 3.5 ± 0.6 nM and 4 ± 0.6 nM, respectively.

With `O=C(NCC(=O)N1[C@@H](c2cccc(O)c2)CC[C@H]1C(=O)O)[C@@H](S)Cc1ccc(O)cc1` [Example 47, N-[N-(5R)-[(2S)-2-mercapto-3-(para-hydroxyphenyl)propanoyl]glycyl]5-(meta-hydroxyphenyl)-L-proline], the “% inhibition renal NEP” value in assay [3] (1 h after administration) was 75 ± 3%; in assay [3] (2 h after administration), 70 ± 5%; in assay [3] (4 h after administration) it was 74 ± 4%; in assay [3] (8 h after administration), 60 ± 10%; in assay [3] (16 h after administration) it was 48 ± 4%. Moreover, the “% inhibition pulmonary ACE” value is 90 ± 1% in assay [4] (1 h after administration); 86 ± 3% in assay [4] (2 h after administration); 87 ± 3% in assay [4] (4 h after administration); 73 ± 3% in assay [4] (8 h after administration); 20 ± 8% in assay [4] (16 h after administration). The “Systolic blood pressure (mm Hg) Treated animals” value in assay [5] (p.o. 25 mg/kg/day Day 1 to Day 6, n = 10, Day 0) came to 210 ± 5 mm Hg; in assay [5] (p.o. 25 mg/kg/day Day 1 to Day 6, n = 10, Day 1), 212 ± 3 mm Hg; in assay [5] (p.o. 25 mg/kg/day Day 1 to Day 6, n = 10, Day 2), 211 ± 1 mm Hg; in assay [5] (p.o. 25 mg/kg/day Day 1 to Day 6, n = 10, Day 3) it was 210 ± 2 mm Hg; in assay [5] (p.o. 25 mg/kg/day Day 1 to Day 6, n = 10, Day 4), 205 ± 2 mm Hg; in assay [5] (p.o. 25 mg/kg/day Day 1 to Day 6, n = 10, Day 5), 205 ± 1 mm Hg. Moreover, the “Systolic blood pressure (mm Hg) Treated animals” value in assay [5] (p.o. 25 mg/kg/day Day 1 to Day 6, n = 10, Day 6) worked out at 213 ± 2 mm Hg; in assay [5] (p.o. 25 mg/kg/day Day 1 to Day 6, n = 10, Day 7), 209 ± 4 mm Hg; in assay [5] (p.o. 25 mg/kg/day Day 1 to Day 6, n = 10, Day 8), 212 ± 2 mm Hg; in assay [5] (p.o. 25 mg/kg/day Day 1 to Day 6, n = 10, Day 9), 208 ± 2 mm Hg; in assay [5] (p.o. 25 mg/kg/day Day 1 to Day 6, n = 10, Day 10), 214 ± 1 mm Hg.

As for `O=C(O)CNC(=O)C(CS)Cc1ccccc1` (stereo not shown) [thiorphan, N-(2-mercaptomethyl-3-phenyl-1-oxopropyl)glycine], the “activity on NEP versus ACE in words” value in assay [2] (comment on Table I) is given as “exhibits an activity on neutral endopeptidase (NEP) only”. Besides, the “effect in clinical trials” value in assay [6] is “causes natriuresis and diuresis without any significant hypotensive effect and without decreasing cardiac overload”. Further, in assay [7], the “inhibitory property, concentration” value was “nanomolar concentration”.

One may read the IC50 as the concentration that inhibits the measured activity by half. A high value points to a need for much substance.

Source of the values: US5741781A, “Mercaptoalkanoyldipeptide compounds” (Adir et Compagnie, priority 1995, dated 1998).
